Consider four compounds from patent US20230390192A1, “GASTRO RETENTIVE DOSAGE FORMS COMPRISING DEUTETRABENAZINE” (AUSPEX PHARMACEUTICALS, INC., priority 2020, published 2023).

Structures are written as SMILES.

A word on the solubility: it is the concentration that dissolves in the medium under given conditions. Lower therefore signals a poorly soluble substance.

The conditions of data set [1]: in vivo; cited from earlier work.
Another data set is described as follows: Human [14C]-AME study. Conditions: humans, dosed as powder in capsule (PIC).
Data set [2] in a line: Single-dose partial crossover comparative bioavailability study in dogs.
Procedure: The trial was conducted as an open-label, randomized, single-dose, partial crossover comparative bioavailability study. The study was designed to determine the AUC0-t, AUC0-24, Cmax and Tmax of deutetrabenazine and total deuterated α- and β-dihydrotetrabenazine (deuHTBZ) metabolites. The sample group consisted of 4 male beagle dogs. Each dog was administered two treatments. […] A washout period of 14 days was kept before crossing over to the next treatment. Each dog was administered a single oral dose with 10 ml water. Prior to each dose administration, the dogs were pretreated with pentagastrin (to stimulate gastric acid secretion.
Blood samples were collected before dosing and at predetermined time points through 24 hours post-dosing. The samples were analyzed for deutetrabenazine and total deuHTBZ in plasma using an LC-MS/MS method.
Data set [3] in a line: Rat perfusion model, intestinal permeability/absorption.
The nature of data set [4]: Drug solubility at different pH.
A short description of data set [5]: Deutetrabenazine/deuHTBZ Cmax ratio in humans. The class given is in vivo.
Data set [6] is described as follows: Particle size distribution by laser diffractometry (Mastersizer 3000). The class given is physicochemical. Conditions: drug substance, dry measurement. The text has this:
As used herein, the term “particle size distribution” refers to the statistical distribution of the volume share related of all particle sizes and is represented by D90, D50 or D10 values. The D90 value of the integral volume distribution is defined in the context of this invention as the particle diameter, at which 90 percent by volume of the particles have a smaller diameter than the diameter, which corresponds to the D90 value. For example, a D90 of 15 μm, means that 90% (by volume) of the particles have a diameter less than or equal to 15 μm. A D50 of 10 μm, means that 50% (by volume) of the particles have a diameter less than or equal to 10 μm. A D10 of 3 μm, means that 10% (by volume) of the particles have a diameter less than or equal to 3 μm. Particle size distribution is determined by means of laser diffractometry. More specifically, the particle size distribution is determined using a Mastersizer 3000 from Malvern Instruments.
The deutetrabenazine particle size distributions following manufacture (untreated), milling (quadro co-mill) and micronization (air jet mill) are shown in Table 1.
For dry measurement of the milled and unmilled deutetrabenazine the following settings are preferably used: […]

Take `[2H]C([2H])([2H])Oc1cc2c(cc1OC([2H])([2H])[2H])[C@H]1CC(=O)[C@H](CC(C)C)CN1CC2` [Deutetrabenazine, (RR,SS)-1,3,4,6,7,11b-hexahydro-9,10-di(methoxy-D3)-3-(2-methylpropyl)-2H-benzo[a]quinolizin-2-one]: in data set [1], the “half-life of active metabolites relative to tetrabenazine” value is listed as “increased”. Moreover, the “radioactive dose recovered in urine” value in the data set “Human [14C]-AME study” is listed as “approximately 80%”. Moreover, the “deutetrabenazine/deuHTBZ Cmax ratio” value in data set [2] is reported as “about 10%”; in data set [5] it was less than 1%. Besides, the “permeability through the small intestinal (SI) segments” value in data set [3] (rat perfusion model) is “permeable”. Further, the “levels of absorption in the lower GI (rank order of segments)” value in data set [3] (rats) is on record as “Jejunum<Mid-small intestine<Colon<Ileum”. Besides, in data set [3] (rats, lower GI), the ileum absorption result is given as “about 0.0006 cm/sec”. Also, the solubility entry in data set [4] (acidic environment (pH<4)) is “relatively good solubility”; in data set [4] (pH ≥4), less than 2300 µg/mL.
In data set [6], `[2H]C([2H])([2H])Oc1cc2c(cc1OC([2H])([2H])[2H])C1CC(=O)C(CC(C)C)CN1CC2` (stereo not drawn) [co-milled, deutetrabenazine] registered a D10 of 6.11 μm, a D50 of 33.55 μm and a D90 of 131.55 μm.
In data set [6], `[2H]C([2H])([2H])Oc1cc2c(cc1OC([2H])([2H])[2H])C1CC(=O)C(CC(C)C)CN1CC2` (stereo not drawn) [micro-milled, deutetrabenazine] had a D10 of 1.08 μm, a D50 of 3.31 μm and a D90 of 7.05 μm.
As for `[2H]C([2H])([2H])Oc1cc2c(cc1OC([2H])([2H])[2H])C1CC(=O)C(CC(C)C)CN1CC2` (stereo not drawn) [unmilled, deutetrabenazine], in data set [6], the D10 is 9.08 μm, the D50 came to 59.66 μm and the D90 was 213.07 μm.
